Values quoted from earlier work in US10028963B2, “Methods for treating intrapulmonary infections” (priority 2011, dated 2018).

Conditions: patients treated for nosocomial pneumonia

Structure (SMILES): CN(C)c1cc(NC(=O)CNC(C)(C)C)c(O)c2c1C[C@H]1C[C@H]3[C@H](N(C)C)C(=O)C(C(N)=O)=C(O)[C@@]3(O)C(=O)C1=C2O [tigicycline]
- Mortality risk compared to other drugs: increased mortality risk
